Experimental data published in patent US20170014375A1, “PHARMACEUTICAL COMPOSITION COMPRISING EFFECTIVE DOSE OF POMIFERIN FOR TREATING CANCERS” (Macau University of Science and Technology, priority 2015, published 2017).

Assays:
[1] = system: A549 (human lung cancer) cells; experiment: MTT cytotoxicity assay, A549; assay type: cell-based; settings: 72 h, 3 days, read-out: Means of IC50
Experimental: (§1) Pomiferin is dissolved in DMSO at a final concentration of 100 mmol/L and stored at −20° C. Cytotoxicity is assessed using the 3-(4,5-dimethylthiazol-2-yl)-2,5-diphenyltetrazolium bromide assay. 4000-8000 HeLa (human cervical cancer), MCF-7 (human breast cancer), HepG2 and Hep3B (human liver cancer), H1299 and A549 (human lung cancer), LNCap (human prostate cancer) and LLC-1 (mouse Lewis lung carcinoma) cells are seeded on 96-well plates per well. After overnight pre-incubation, the cells are exposed to different concentrations of pomiferin ([…]) for 3 days. Subsequently, 10 μL of MTT reagents is added to each well and incubated at 37° C. for 4 hours followed by the addition of 100 μL solubilization buffer (10% SDS in 0.01 mol/L HCl) and overnight incubation. Absorbance at 585 nm is determined from each well the next day. The percentage of cell viability is calculated using the following formula: Cell viability (%)=Cells number treated/Cells number DMSO control×100. Data are obtained from three independent experiments.

[2] = system: LNCap (human prostate cancer) cells; experiment: MTT cytotoxicity assay, LNCap; assay type: cell-based; settings: 72 h, 3 days, read-out: Means of IC50
Experimental: as §1

Bax-Bak wild-type MEFs = experiment: Annexin V/PI flow cytometry cell death, Bax-Bak wild-type MEFs; assay type: cell-based, mouse; settings: 5 μM, 24 h
Experimental: Cell death is measured using an annexin V staining kit (BD Biosciences, San Jose, Calif., USA). Briefly, Bax-Bak wild-type and Bax-Bak DKO MEFs are treated with the 5 μM pomiferin for 24 h. Cells are then harvested and analysed by multiparametric flow cytometry using FITC-Annexin V and Propidium iodide staining (BD Biosciences, San Jose, Calif., USA) according to the manufacturer's instructions. Flow cytometry is then carried out using a FACSCalibur flow cytometer (BD Biosciences, San Jose, Calif., USA). Data acquisition and analysis is performed with CellQuest (BD Biosciences, San Jose, Calif., USA). Data are obtained from three independent experiments.

Compound: CC(C)=CCc1c2c(c3occ(-c4ccc(O)c(O)c4)c(=O)c3c1O)C=CC(C)(C)O2 [pomiferin]
- IC50 [1]: 20.3 µM
- IC50 [2]: 16.2 µM
- cell death (Bax-Bak wild-type MEFs): ~40%
